According to PubChem BioAssay AID1259408 (Genetic Toxicology Data Bank (GENE-TOX), 2018):
Calls of active or inactive are those of the source. No rule for the calls is given here.

Tested on: GENE-TOX genotoxicity assays, various organisms and cells
Assay: GENE-TOX mutagenicity studies
Settings: for call: Assay Type: In vivo carcinogenicity studies, Assay Code: CCG+
[1] = Species/Cell Type: Drosophila melanogaster, Assay Type: Sex-linked recessive lethal gene mutation, Assay Code: SRL+, Evaluation Type: Evaluation A (Pre-1980)
[2] = Species/Cell Type: Nonhuman, Evaluation Type: Evaluation A (Pre-1980)
[3] = Species/Cell Type: Mouse, Sex: Male, Assay Type: Sperm morphology, Assay Code: SPI-, Evaluation Type: Evaluation A (Pre-1980)

C=CN(C)N=O
mutagenic call [1]: active; positive
call [2]: active; positive

CCCCN1CC1
mutagenic call (Species/Cell Type: Schizosaccharomyces pombe, Assay Type: Reverse gene mutation, Assay Code: YEZ+, Evaluation Type: Evaluation A (Pre-1980)): active; positive

c1ccc2c(c1)ccc1[nH]c3ccc4ccccc4c3c12
call [2]: active; positive

Cc1c2c(c(C)c3ccccc13)C(O)C(O)c1ccccc1-2 (configuration not stated)
mutagenic call (Species/Cell Type: Chinese hamster lung (V79) cells, Assay Type: Forward gene mutation at the HPRT or ouabain locus, Assay Code: V79-*, Activation: With metabolic activation, Evaluation Type: Evaluation A (Pre-1980)): inactive; negative

COc1cc2c(c3oc(=O)c4c(c13)CCC4=O)[C@@H]1C=CO[C@@H]1O2
mutagenic call (Species/Cell Type: Bacillus subtilis (H17 vs M45), Assay Type: Rec-assay, spot test, DNA effects (bacterial DNA repair), Assay Code: REW+, Evaluation Type: Evaluation A (Pre-1980)): active; positive
mutagenic call (Species/Cell Type: Chinese hamster lung (V79) cells, Assay Type: Forward gene mutation at the HPRT or ouabain locus, Assay Code: V79+, Evaluation Type: Evaluation A (Pre-1980)): active; positive
mutagenic call [1]: active; positive
mutagenic call (Species/Cell Type: Escherichia coli polA (W3119 vs P3478), Assay Type: Rec-assay, DNA effects (bacterial DNA repair), Assay Code: RE1+, Evaluation Type: Evaluation A (Pre-1980)): active; positive
mutagenic call (Species/Cell Type: Human diploid fibroblasts, Assay Type: Unscheduled DNA synthesis (UDS) in vitro, DNA effects, Assay Code: UDH+D*, Activation: With metabolic activation, Dose Response: With dose response, Evaluation Type: Evaluation A (Pre-1980)): active; positive
mutagenic call (Species/Cell Type: Human lymphocytes, Assay Type: Sister-chromatid exchange (SCE) in vitro, Assay Code: SCL+D, Dose Response: With dose response, Evaluation Type: Evaluation A (Pre-1980)): active; positive
mutagenic call (Species/Cell Type: Human lymphocytes, Assay Type: Sister-chromatid exchange (SCE) in vitro, Assay Code: SCL+D, Dose Response: With dose response, Evaluation Type: Evaluation B (Post-1980)): active; positive
mutagenic call (Species/Cell Type: Human, Assay Type: Sister-chromatid exchange (SCE) in vitro, Assay Code: SC1+D, Dose Response: With dose response, Evaluation Type: Evaluation A (Pre-1980)): active; positive
mutagenic call (Species/Cell Type: Human, Assay Type: Sister-chromatid exchange (SCE) in vitro, Assay Code: SC1+D, Dose Response: With dose response, Evaluation Type: Evaluation B (Post-1980)): active; positive
mutagenic call (Species/Cell Type: Mammalian germ cells, Sex: Male, Assay Type: Chromosome aberrations in vivo, Assay Code: CY9T, Evaluation Type: Evaluation A (Pre-1980)): no conclusion
mutagenic call (Species/Cell Type: Mammalian polychromatic erythrocytes, Assay Type: Micronucleus test, chromosome aberrations, Assay Code: MNT+, Evaluation Type: Evaluation A (Pre-1980)): active; positive
mutagenic call [3]: inactive; negative
mutagenic call (Species/Cell Type: Neurospora crassa, Assay Type: Forward gene mutation, Assay Code: NEF+, Evaluation Type: Evaluation A (Pre-1980)): active; positive
mutagenic call (Species/Cell Type: Nonhuman, Assay Type: Chromosome aberrations in vitro, Assay Code: CY&+, Evaluation Type: Evaluation A (Pre-1980)): active; positive
call [2]: active; positive
mutagenic call (Species/Cell Type: Nonhuman, Assay Type: Sister-chromatid exchange (SCE) in vitro, Assay Code: SC2+D, Dose Response: With dose response, Evaluation Type: Evaluation A (Pre-1980)): active; positive
mutagenic call (Species/Cell Type: Nonhuman, Assay Type: Sister-chromatid exchange (SCE) in vitro, Assay Code: SC2+D, Dose Response: With dose response, Evaluation Type: Evaluation B (Post-1980)): active; positive
mutagenic call (Species/Cell Type: Nonhuman, Assay Type: Sister-chromatid exchange (SCE) in vivo, Assay Code: SC3+, Evaluation Type: Evaluation A (Pre-1980)): active; positive
mutagenic call (Species/Cell Type: Nonhuman, Assay Type: Sister-chromatid exchange (SCE) in vivo, Assay Code: SC3+, Evaluation Type: Evaluation B (Post-1980)): active; positive
mutagenic call (Species/Cell Type: Rat primary hepatocytes, Assay Type: Unscheduled DNA synthesis (UDS) in vitro, DNA effects, Assay Code: UDP+, Evaluation Type: Evaluation A (Pre-1980)): active; positive
mutagenic call (Species/Cell Type: Rat, Sex: Male, Assay Type: Sperm morphology, Assay Code: SPA-, Evaluation Type: Evaluation A (Pre-1980)): inactive; negative
mutagenic call (Species/Cell Type: Saccharomyces cerevisiae, Assay Type: Mitotic recombination or gene conversion, Assay Code: YEC+, Evaluation Type: Evaluation A (Pre-1980)): active; positive
mutagenic call (Species/Cell Type: Saccharomyces cerevisiae, Assay Type: Mitotic recombination or gene conversion, Assay Code: YEH+, Evaluation Type: Evaluation A (Pre-1980)): active; positive
mutagenic call (Species/Cell Type: Salmonella typhimurium (one or more of the five standard strains: TA98, TA100, TA1535, TA1537, and TA1538), Assay Type: Histidine reverse gene mutation, Ames assay, Assay Code: SAL+, Evaluation Type: Evaluation A (Pre-1980)): active; positive
mutagenic call (Species/Cell Type: Salmonella typhimurium, Assay Type: Forward and reverse gene mutation, body fluid assay, Assay Code: BFU+, Evaluation Type: Evaluation A (Pre-1980)): active; positive
mutagenic call (Species/Cell Type: Salmonella typhimurium, Assay Type: Forward and reverse gene mutation, host-mediated assay, Assay Code: HMA+, Evaluation Type: Evaluation A (Pre-1980)): active; positive
mutagenic call (Species/Cell Type: Syrian hamster embryo (SA7/SHE) cells, Assay Type: Cell transformation, viral enhanced, Assay Code: CT7+, Evaluation Type: Evaluation A (Pre-1980)): active; positive
mutagenic call (Species/Cell Type: Syrian hamster embryo (SHE) cells, Assay Type: Cell transformation, clonal assay, Assay Code: CTC+D, Dose Response: With dose response, Evaluation Type: Evaluation A (Pre-1980)): active; positive
mutagenic call (Species/Cell Type: Syrian hamster embryo (SHE) cells, Assay Type: Cell transformation, focus assay, Assay Code: CTF+, Evaluation Type: Evaluation A (Pre-1980)): active; positive

O=C1CCCO1
mutagenic call (Species/Cell Type: Mammalian polychromatic erythrocytes, Assay Type: Micronucleus test, chromosome aberrations, Assay Code: MNTT, Evaluation Type: Evaluation A (Pre-1980)): no conclusion
mutagenic call [3]: inactive; negative
mutagenic call (Species/Cell Type: Nonhuman, Assay Type: Sister-chromatid exchange (SCE) in vitro, Assay Code: SC2+, Evaluation Type: Evaluation B (Post-1980)): active; positive
